From patent US5789431A, “Naphthoquinone antitumor compound and method” (The University of North Carolina at Chapel Hill, priority 1996, dated 1998)

Key:
CCRF-CEM = assay: in vitro leukemia cell growth inhibition (NCI screen)
HCT-116 = assay: in vitro colon cancer cell growth inhibition (NCI screen)
M19-MEL = assay: in vitro melanoma cell growth inhibition (NCI screen)
SK-MEL-28 = assay: as above
OVCAR-4 = assay: in vitro ovarian cancer cell growth inhibition (NCI screen); details: OVACR-4
HOP-18 = assay: in vitro non-small cell lung cancer cell growth inhibition (NCI screen)
NCI-H522 = assay: as above
KM 12 = assay: in vitro colon cancer cell growth inhibition (NCI screen)
NCI-H23 = assay: in vitro non-small cell lung cancer cell growth inhibition (NCI screen)
HL-60(TB) = assay: in vitro leukemia cell growth inhibition (NCI screen)
SNB-75 = assay: in vitro CNS cancer cell growth inhibition (NCI screen)
MOLT-4 = assay: in vitro leukemia cell growth inhibition (NCI screen)
SK-MEL-2 = assay: in vitro melanoma cell growth inhibition (NCI screen)
RPMI-8226 = assay: in vitro leukemia cell growth inhibition (NCI screen)
SR = assay: as above
UACC-62 = assay: in vitro melanoma cell growth inhibition (NCI screen)
K-562 = assay: in vitro leukemia cell growth inhibition (NCI screen)
M14 = assay: in vitro melanoma cell growth inhibition (NCI screen)
SF-539 = assay: in vitro CNS cancer cell growth inhibition (NCI screen)
IGROV1 = assay: in vitro ovarian cancer cell growth inhibition (NCI screen)
human tumor cell lines = type: cell-based; details: for GI50: Homo sapiens, cancer cell panel, general / most cell lines, read-out: logGI50 values in the cancer cell line panel (converted)
LXFL 529 = assay: in vitro non-small cell lung cancer cell growth inhibition (NCI screen)
NCI-H460 = assay: as above
U 251 = assay: in vitro CNS cancer cell growth inhibition (NCI screen)
HOP-62 = assay: in vitro non-small cell lung cancer cell growth inhibition (NCI screen)
OVCAR-3 = assay: in vitro ovarian cancer cell growth inhibition (NCI screen)
DLD-1 = assay: in vitro colon cancer cell growth inhibition (NCI screen)
TK-10 = assay: in vitro renal cancer cell growth inhibition (NCI screen)
SNB-19 = assay: in vitro CNS cancer cell growth inhibition (NCI screen)
SF-268 = assay: as above
RXF-393 = assay: in vitro renal cancer cell growth inhibition (NCI screen)
HOP-92 = assay: in vitro non-small cell lung cancer cell growth inhibition (NCI screen)
OVCAR-8 = assay: in vitro ovarian cancer cell growth inhibition (NCI screen)
SW 620 = assay: in vitro colon cancer cell growth inhibition (NCI screen)
HT 29 = assay: as above
COLO-205 = assay: as above
KM 20L2 = assay: as above
PC-3 = assay: in vitro prostate cancer cell growth inhibition (NCI screen)
MDA-MB-435 = assay: in vitro breast cancer cell growth inhibition (NCI screen)
NCI-H266 = assay: in vitro non-small cell lung cancer cell growth inhibition (NCI screen)
UACC-257 = assay: in vitro melanoma cell growth inhibition (NCI screen)
MALME-3M = assay: as above
MDA-MB-231/ATCC = assay: in vitro breast cancer cell growth inhibition (NCI screen)
SN12C = assay: in vitro renal cancer cell growth inhibition (NCI screen)
T-47D = assay: in vitro breast cancer cell growth inhibition (NCI screen)
BT-549 = assay: as above
MDA-N = assay: as above
OVCAR-5 = assay: in vitro ovarian cancer cell growth inhibition (NCI screen)
MCF-7 = assay: in vitro breast cancer cell growth inhibition (NCI screen)
HCT-15 = assay: in vitro colon cancer cell growth inhibition (NCI screen)
LOX1MVI = assay: in vitro melanoma cell growth inhibition (NCI screen)
SK-MEL-5 = assay: as above

Structure (SMILES)	cytotoxicity log GI50 (OVCAR-4)	cytotoxicity log GI50 (NCI-H522)	cytotoxicity log GI50 (NCI-H23)	cytotoxicity log GI50 (HL-60(TB))	cytotoxicity log GI50 (SNB-75)	cytotoxicity log GI50 (SK-MEL-2)	cytotoxicity log GI50 (UACC-62)	cytotoxicity log GI50 (M14)	cytotoxicity log GI50 (SF-539)	cytotoxicity log GI50 (IGROV1)	GI50 (human tumor cell lines)	cytotoxicity log GI50 (NCI-H460)	cytotoxicity log GI50 (U 251)	cytotoxicity log GI50 (OVCAR-3)	cytotoxicity log GI50 (TK-10)	cytotoxicity log GI50 (SNB-19)	cytotoxicity log GI50 (RXF-393)	cytotoxicity log GI50 (SW 620)	cytotoxicity log GI50 (COLO-205)	cytotoxicity log GI50 (MDA-MB-435)	further results
O=C(Cc1ccccc1F)NC1=C(Cl)C(=O)c2ccccc2C1=O [Compound 2i, 2-(2-Fluorophenyl)acetamido-3-chloro-1,4-naphthoguinone]	-6.22 M	-6.67 M	-6.25 M	-6.55 M	-6.33 M	-6.21 M	-6.48 M	-6.29 M	-6.62 M	-6.17 M	0.0251 to 2.51 µM	-6.15 M	-6.48 M								cytotoxicity log GI50 (CCRF-CEM): -6.54 M; cytotoxicity log GI50 (HCT-116): -6.37 M; cytotoxicity log GI50 (M19-MEL): -6.36 M; cytotoxicity log GI50 (SK-MEL-28): -6.34 M; cytotoxicity log GI50 (HOP-18): -6.18 M; cytotoxicity log GI50 (KM 12): -6.29 M; cytotoxicity log GI50 (MOLT-4): -6.60 M; cytotoxicity log GI50 (RPMI-8226): -6.44 M; cytotoxicity log GI50 (SR): -6.32 M; cytotoxicity log GI50 (K-562): -6.53 M; cytotoxicity log GI50 (LXFL 529): -6.40 M
NC1=C(NC(=O)Cc2ccc(F)cc2)C(=O)c2ccccc2C1=O [Compound 3c]		-4.79 M	-4.87 M	-4.59 M	-4.49 M					-4.71 M			-5.09 M	-4.88 M	-4.57 M	-4.63 M	-4.68 M				cytotoxicity log GI50 (CCRF-CEM): -4.55 M; cytotoxicity log GI50 (HOP-62): -4.56 M; cytotoxicity log GI50 (M19-MEL): -5.16 M; cytotoxicity log GI50 (DLD-1): -4.95 M; cytotoxicity log GI50 (SF-268): -4.54 M; cytotoxicity log GI50 (HOP-92): -4.48 M; cytotoxicity against tumor cells (in words) (human tumor cell lines; cancer cell line panel): inactive against all representative cancer cell lines; cytotoxicity log GI50 (OVCAR-8): -4.47 M
O=C1c2ccccc2C(=O)c2[nH]c(Cc3ccccc3F)nc21 [Compound 4b]	-4.55 M	-4.67 M	-4.56 M	-4.45 M					-4.51 M			-4.47 M	-5.10 M	-4.84 M	-4.53 M	-4.42 M	-4.69 M	-4.42 M	-4.47 M		cytotoxicity log GI50 (DLD-1): -4.79 M; cytotoxicity log GI50 (HT 29): -4.49 M; cytotoxicity log GI50 (KM 20L2): -4.47 M; cytotoxicity log GI50 (LXFL 529): -4.50 M
CCc1nc2c(n1CC)C(=O)c1ccccc1C2=O [Compound 23]					-4.68 M		-4.54 M	-4.63 M		-4.61 M	~10 µM			-4.73 M	-4.66 M		-4.70 M	-4.57 M	-4.77 M	-4.74 M	cytotoxicity log GI50 (PC-3): -4.73 M; cytotoxicity log GI50 (NCI-H266): -4.54 M; cytotoxicity log GI50 (UACC-257): -4.60 M; cytotoxicity log GI50 (MALME-3M): -4.81 M; cytotoxicity log GI50 (MDA-MB-231/ATCC): -4.77 M; cytotoxicity log GI50 (SN12C): -4.56 M; cytotoxicity log GI50 (T-47D): -4.74 M; cytotoxicity log GI50 (BT-549): -4.76 M; cytotoxicity log GI50 (HT 29): -4.60 M
CCn1c(-c2ccc(OC)cc2)nc2c1C(=O)c1ccccc1C2=O [Compound 27]			-4.21 M								~10 µM										cytotoxicity log GI50 (HOP-62): -4.22 M
COC(=O)CCC(=O)NC1=C(Nc2ccccc2)C(=O)c2ccccc2C1=O [Compound 54]				-5.46 M		-5.41 M	-5.75 M	-5.71 M	-5.11 M					-5.52 M						-5.67 M	cytotoxicity log GI50 (SK-MEL-28): -5.59 M; cytotoxicity log GI50 (MDA-N): -5.69 M; cytotoxicity log GI50 (OVCAR-5): -5.41 M; cytotoxicity log GI50 (UACC-257): -5.56 M; cytotoxicity log GI50 (MALME-3M): -5.76 M; cytotoxicity log GI50 (MCF-7): -5.75 M
COC(=O)CCC(=O)NC1=C(NCc2ccccc2)C(=O)c2ccccc2C1=O [Compound 55]	-4.73 M	-4.72 M	-4.67 M	-4.66 M		-4.73 M	-4.76 M	-4.73 M	-4.70 M	-4.75 M		-4.74 M		-5.40 M		-4.66 M		-4.70 M	-4.69 M	-4.72 M	cytotoxicity log GI50 (MDA-N): -4.79 M; cytotoxicity log GI50 (HCT-15): -4.77 M; cytotoxicity log GI50 (UACC-257): -4.78 M; cytotoxicity log GI50 (MCF-7): -4.76 M; cytotoxicity log GI50 (HOP-92): -4.80 M; cytotoxicity log GI50 (LOX1MVI): -4.66 M; cytotoxicity log GI50 (SK-MEL-5): -4.92 M
